In ChEMBL document CHEMBL1141921, “Phthalazinones. Part 1: The design and synthesis of a novel series of potent inhibitors of poly(ADP-ribose)polymerase” (Bioorg Med Chem Lett, 2005):

What was measured:
[1] = target: Poly [ADP-ribose] polymerase 1 (Homo sapiens, UniProt P09874); assay: Inhibitory concentration against human poly (ADP-ribose) polymerase 1 (PARP-1)
[2] = In vitro metabolic stability was measured in human liver microsomes; assay type: ADME, Microsome
HeLa = assay: Potentiation factor (ratio of the IC50 growth curve for the alkylating agent, methyl methanesulfonate (MMS) divided by the IC50 of the curve of MMS + PARP inhibitor) against human HeLa B cells at a concentration of 200 nM; assay type: functional
[3] = In vitro metabolic stability was measured in mouse liver microsomes; assay type: ADME, Microsome

Chain of Poly [ADP-ribose] polymerase 1 (P09874 whole entry): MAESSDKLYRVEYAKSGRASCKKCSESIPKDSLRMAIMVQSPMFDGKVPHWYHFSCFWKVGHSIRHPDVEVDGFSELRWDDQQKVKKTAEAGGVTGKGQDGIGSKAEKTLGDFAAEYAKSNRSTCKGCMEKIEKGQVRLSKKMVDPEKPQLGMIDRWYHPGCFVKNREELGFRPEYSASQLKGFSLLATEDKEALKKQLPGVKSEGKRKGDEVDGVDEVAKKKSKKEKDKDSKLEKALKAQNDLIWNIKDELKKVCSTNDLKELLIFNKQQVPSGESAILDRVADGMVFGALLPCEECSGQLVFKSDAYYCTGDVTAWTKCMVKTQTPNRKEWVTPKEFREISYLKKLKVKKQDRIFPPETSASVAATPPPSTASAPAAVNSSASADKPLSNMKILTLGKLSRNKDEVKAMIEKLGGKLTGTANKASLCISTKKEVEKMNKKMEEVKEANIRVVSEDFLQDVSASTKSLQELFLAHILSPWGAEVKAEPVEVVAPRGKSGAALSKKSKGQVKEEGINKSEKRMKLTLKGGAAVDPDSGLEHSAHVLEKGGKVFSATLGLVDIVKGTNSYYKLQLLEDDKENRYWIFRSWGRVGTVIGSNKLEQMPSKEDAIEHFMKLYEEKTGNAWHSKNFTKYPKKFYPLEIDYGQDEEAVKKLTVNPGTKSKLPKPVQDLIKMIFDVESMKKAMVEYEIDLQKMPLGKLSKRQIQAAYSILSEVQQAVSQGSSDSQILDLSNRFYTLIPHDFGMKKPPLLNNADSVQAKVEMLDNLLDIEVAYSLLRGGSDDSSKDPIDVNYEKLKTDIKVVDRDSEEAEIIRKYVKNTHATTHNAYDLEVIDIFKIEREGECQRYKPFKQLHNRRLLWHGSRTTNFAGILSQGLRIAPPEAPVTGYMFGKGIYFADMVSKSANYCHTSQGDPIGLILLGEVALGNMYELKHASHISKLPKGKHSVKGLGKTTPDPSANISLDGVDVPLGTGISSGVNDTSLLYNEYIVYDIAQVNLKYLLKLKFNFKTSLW

SMILES | IC50 [1] | PF50 (HeLa) | also measured
CC(C)C(=O)Nc1cccc(Cc2nnc(O)c3ccccc23)c1 | 370 nM |  | 
CCOC(=O)Nc1cccc(Cc2nnc(O)c3ccccc23)c1 | 116 nM |  | 
O=C(Nc1cccc(Cc2nnc(O)c3ccccc23)c1)c1ccc(-n2cccn2)nc1 | 47 nM |  | 
Cc1noc(-c2cccc(Cc3nnc(O)c4ccccc34)c2)n1 | 189 nM |  | 
O=C1CCC(=O)N1c1cccc(Cc2n[nH]c(=O)c3ccccc23)c1 |  | 1.74 | Cli [2]: < 0.05 ml min-1 g-1 liver
O=C(Nc1cccc(Cc2nnc(O)c3ccccc23)c1)C(F)(F)F | 13 nM |  | Cli [3]: > 50 ml min-1 g-1 liver
O=C1CCC(=O)N1c1cc(Cc2n[nH]c(=O)c3ccccc23)ccc1Cl |  | 1.5 | 
CN1CC(=O)N(c2cc(Cc3nnc(O)c4ccccc34)ccc2F)C(=O)C1 |  | 3.1 | 
O=C1CC(c2ccccc2)C(=O)N1c1cc(Cc2n[nH]c(=O)c3ccccc23)ccc1F (configuration not stated) |  | 5.4 | 
O=C1CCCN1c1cccc(Cc2n[nH]c(=O)c3ccccc23)c1 |  |  | Cli [3]: 4.9 ml min-1 g-1 liver
CC1(C)CC(=O)N(c2cc(Cc3nnc(O)c4ccccc34)ccc2F)C1=O |  | 2.9 | 
O=C1C=CC(=O)N1c1cccc(Cc2nnc(O)c3ccccc23)c1 |  | 0.94 | 
O=C1CCCC(=O)N1c1cc(Cc2n[nH]c(=O)c3ccccc23)ccc1F |  | 3.6 | 
O=C1c2ccccc2C(=O)N1c1cccc(Cc2n[nH]c(=O)c3ccccc23)c1 | 180 nM |  | 
CC1CC(=O)N(c2cc(Cc3n[nH]c(=O)c4ccccc34)ccc2F)C1=O (configuration not stated) |  | 18.2 | 
COc1ccc(Cc2n[nH]c(=O)c3ccccc23)cc1N1C(=O)CCC1=O | 33 nM | 1.5 | 
O=C(Nc1cccc(Cc2n[nH]c(=O)c3ccccc23)c1)c1ccc(-c2ccsc2)s1 | 56 nM |  | 
COc1ccc(-n2cc(C(=O)Nc3cccc(Cc4n[nH]c(=O)c5ccccc45)c3)c(C)n2)cc1 | 10 nM |  | 
Cc1nc(-c2ccccc2)sc1C(=O)Nc1cccc(Cc2n[nH]c(=O)c3ccccc23)c1 | 27 nM |  | 
O=C1C2CC2C(=O)N1c1cc(Cc2nnc(O)c3ccccc23)ccc1F (configuration not stated) | 5 nM | 14.4 | 

Second part, led by results:

IC50 [1] | SMILES | PF50 (HeLa) | also measured
290 nM | CCS(=O)(=O)Nc1cccc(Cc2n[nH]c(=O)c3ccccc23)c1 |  | 
5 nM | O=C1CCC(=O)N1c1cc(Cc2n[nH]c(=O)c3ccccc23)ccc1F | 5.62 | Cli [3]: < 1 ml min-1 g-1 liver
55 nM | O=C(Nc1cccc(Cc2n[nH]c(=O)c3ccccc23)c1)C1CC1 |  | 
540 nM | CCCNC(=O)Nc1cccc(Cc2n[nH]c(=O)c3ccccc23)c1 |  | 
36 nM | CC(=O)Oc1cccc(Cc2n[nH]c(=O)c3ccccc23)c1 |  | 
20 nM | CCC(=O)Nc1cccc(Cc2n[nH]c(=O)c3ccccc23)c1 |  | Cli [3]: 12 ml min-1 g-1 liver
50 nM | CCNC(=O)c1cccc(Cc2n[nH]c(=O)c3ccccc23)c1 |  | Cli [3]: < 1 ml min-1 g-1 liver
90 nM | CCCC(=O)Nc1cccc(Cc2n[nH]c(=O)c3ccccc23)c1 |  | 
770 nM | O=c1[nH]nc(Cc2ccccc2)c2ccccc12 |  | 
